Measured values reported in ChEMBL document CHEMBL1150126, “Oxidation products of abietic acid and its methyl ester” (J Nat Prod, 2002).
Values after ≈ are worked out from the molar mass of the structure shown.

The compounds below were run on KB (assay: Cytotoxicity against human KB cells). Settings: Homo sapiens, KB; read-out: IC50; call rule not given here.
Format: functional, cell-based
In the case of `COC(=O)[C@]1(C)CCC[C@]2(C)c3ccc(C(C)C)cc3[C@H](O)C[C@@H]12`, the IC50 is reported as 5.8 µg/mL (≈ 17.6 µM).
Work on `COC(=O)[C@]1(C)CCC[C@]2(C)c3ccc(C(C)C)cc3C(=O)C[C@@H]12` yielded an IC50 of 4.5 µg/mL (≈ 13.7 µM).
For `COC(=O)[C@]1(C)CCC[C@@]2(C)[C@H]1CC=C1C=C(C(C)C)C(=O)C[C@@H]12`, the IC50 was 12.5 µg/mL (≈ 37.8 µM).

Same assay, conditions: kb
`CCO[C@@]1(C(C)C)C=C2[C@H](O)C[C@@H]3[C@](C)(CCC[C@@]3(C)C(=O)OC)[C@H]2CC1` was tested, and the IC50 was “Not Active”.
For `CC(C)(O)c1ccc2c(c1)[C@H](O)C[C@H]1[C@](C)(C(=O)O)CCC[C@]21C`, the IC50 was “Not Active”.
In the case of `COC(=O)[C@]1(C)CCC[C@@]2(C)[C@H]1C[C@@H](O)C1=C[C@@](O)(C(C)C)CC[C@@H]12`, the IC50 is reported as “Not Active”.
With `COC(=O)[C@]1(C)CCC[C@@]2(C)[C@H]1CC=C1C=C(C(C)C)CC[C@@H]12` [METHYL ABIETATE] the IC50 was “Not Active”.
For `CC(C)C1=CC2=CC[C@@H]3[C@](C)(CCC[C@@]3(C)C(=O)O)[C@H]2CC1` [ABIETIC ACID], the IC50 was “Not Active”.
For `CC(C)C(=O)CC[C@H]1C(C=O)=CC[C@@H]2[C@]1(C)CCC[C@@]2(C)C(=O)O`, the IC50 was “Not Active”.
